Data taken from PubChem BioAssay AID192 (DTP/NCI, 2004).
Where “and” joins values, the source holds several entries; their conditions need not be identical. Identical values can stand only once. Toxic doses and inconclusive results are not listed.

Test system: BDF1 mice, B16 melanoma ip, median survival T/C
Assay: NCI In Vivo Anticancer Drug Screen. Data for tumor model B16 Melanoma (intraperitoneal) in B6D2F1 (BDF1) mice
Settings: endpoint: median survival time, higher = longer survival
Method in brief: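 In this screen, activity was judged from survival or tumor size in treated versus vehicle-treated tumor-bearing mice, reported as T/C.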

[1] = dose: 12.5 mg/kg/injection, schedule: Q01DX009 (ip), vehicle: saline with Tween-80
[2] = dose: 25.0 mg/kg/injection, schedule: Q01DX009 (ip), vehicle: saline with Tween-80
[3] = dose: 50.0 mg/kg/injection, schedule: Q01DX009 (ip), vehicle: saline with Tween-80
[4] = dose: 100.0 mg/kg/injection, schedule: Q01DX009 (ip), vehicle: saline with Tween-80
[5] = dose: 12.5 mg/kg/injection, schedule: Q01DX009 (ip), vehicle: saline
[6] = dose: 25.0 mg/kg/injection, schedule: Q01DX009 (ip), vehicle: saline
[7] = dose: 200.0 mg/kg/injection, schedule: Q01DX009 (ip), vehicle: saline with Tween-80
[8] = dose: 400.0 mg/kg/injection, schedule: Q01DX009 (ip), vehicle: saline with Tween-80
[9] = dose: 25.0 mg/kg/injection, schedule: Q01DX009 (ip), vehicle: Klucel (hydroxypropylcellulose) (HPC)
[10] = dose: 50.0 mg/kg/injection, schedule: Q01DX009 (ip), vehicle: Klucel (hydroxypropylcellulose) (HPC)
[11] = dose: 100.0 mg/kg/injection, schedule: Q01DX009 (ip), vehicle: Klucel (hydroxypropylcellulose) (HPC)
[12] = dose: 200.0 mg/kg/injection, schedule: Q01DX009 (ip), vehicle: Klucel (hydroxypropylcellulose) (HPC)
[13] = dose: 400.0 mg/kg/injection, schedule: Q01DX009 (ip), vehicle: Klucel (hydroxypropylcellulose) (HPC)
[14] = dose: 12.5 mg/kg/injection, schedule: Q01DX009 (ip), vehicle: Klucel (hydroxypropylcellulose) (HPC)

CC(NC1=NCCO1)c1cccc2ccccc12 (centres undefined)
T/C (dose: 8.0 mg/kg/injection, schedule: Q04DX003 (ip), vehicle: saline with Tween-80): 102 % of control
T/C (dose: 12.0 mg/kg/injection, schedule: Q04DX003 (ip), vehicle: saline with Tween-80): 115 % of control
T/C [1]: 102 % of control
T/C (dose: 18.0 mg/kg/injection, schedule: Q04DX003 (ip), vehicle: saline with Tween-80): 102 % of control
T/C [2]: 106 % of control
T/C [3]: 93 % of control
T/C (dose: 50.0 mg/kg/injection, schedule: Q04DX003 (ip), vehicle: saline with Tween-80): 123 % of control

C(=N\Nc1nn[nH]n1)/c1ccccc1
T/C [1]: 92 % of control
T/C [2]: 96 % of control
T/C [3]: 89 % of control
T/C [4]: 90 % of control

COc1ccc(NC(=O)Nc2ccc(OC)cc2)cc1
T/C (dose: 200.0 mg/kg/injection, schedule: Q01DX009 (ip), vehicle: saline): 120 % of control
T/C (dose: 400.0 mg/kg/injection, schedule: Q01DX009 (ip), vehicle: saline): 116 % of control

CCCCCOC(CN)C(Cl)(Cl)Cl (centres undefined)
T/C [5]: 93 % of control
T/C [6]: 100 % of control
T/C (dose: 50.0 mg/kg/injection, schedule: Q01DX009 (ip), vehicle: saline): 102 % of control

CN1C(=O)NC(c2ccc(Cl)cc2)(c2ccc(Cl)cc2)C1=O
T/C (dose: 0.78 mg/kg/injection, schedule: Q01DX009 (ip), vehicle: water): 100 % of control
T/C (dose: 1.56 mg/kg/injection, schedule: Q01DX009 (ip), vehicle: water): 95 % of control
T/C (dose: 3.12 mg/kg/injection, schedule: Q01DX009 (ip), vehicle: water): 100 % of control
T/C (dose: 6.25 mg/kg/injection, schedule: Q01DX009 (ip), vehicle: water): 100 % of control and 112 % of control
T/C (dose: 12.5 mg/kg/injection, schedule: Q01DX009 (ip), vehicle: distilled water + Tween-80): 100 % of control
T/C (dose: 12.5 mg/kg/injection, schedule: Q01DX009 (ip), vehicle: water): 99 % of control and 102 % of control
T/C (dose: 25.0 mg/kg/injection, schedule: Q01DX009 (ip), vehicle: distilled water + Tween-80): 105 % of control
T/C (dose: 25.0 mg/kg/injection, schedule: Q01DX009 (ip), vehicle: water): 101 % of control and 105 % of control
T/C (dose: 50.0 mg/kg/injection, schedule: Q01DX009 (ip), vehicle: distilled water + Tween-80): 99 % of control
T/C (dose: 100.0 mg/kg/injection, schedule: Q01DX009 (ip), vehicle: distilled water + Tween-80): 116 % of control
T/C (dose: 200.0 mg/kg/injection, schedule: Q01DX009 (ip), vehicle: distilled water + Tween-80): 98 % of control

CCCCCCCCCCOCCCCCCCCCC
T/C [1]: 95 % of control
T/C [2]: 95 % of control
T/C [3]: 95 % of control
T/C [7]: 88 % of control
T/C [8]: 88 % of control

C[P+](C)(Cc1ccc([N+](=O)[O-])cc1)c1ccccc1
T/C [9]: 98 % of control
T/C [10]: 100 % of control

O=C(O)C1(C(=O)O)CCCCC1.[NH-]CC1(C[NH-])CCCCC1.[Pt+2]
T/C (dose: 6.25 mg/kg/injection, schedule: Q01DX009 (ip), vehicle: saline): 121 % of control
T/C [5]: 122 % of control
T/C [6]: 122 % of control

COc1cc(NC(=O)CC(C)=O)cc2c(C)cc(=O)n(C)c12
T/C [11]: 96 % of control
T/C [12]: 100 % of control
T/C [13]: 100 % of control

CCOc1ccccc1NC(=O)Nc1ccccc1
T/C [11]: 102 % of control
T/C [12]: 103 % of control
T/C [13]: 99 % of control

COC(=O)c1[nH]c(=O)[nH]c(=O)c1F
T/C (dose: 2.0 mg/kg/injection, schedule: Q01DX009 (ip), vehicle: saline with Tween-80): 95 % of control
T/C (dose: 4.0 mg/kg/injection, schedule: Q01DX009 (ip), vehicle: saline with Tween-80): 97 % of control
T/C (dose: 8.0 mg/kg/injection, schedule: Q01DX009 (ip), vehicle: saline with Tween-80): 107 % of control

ClCc1ccc(Oc2ccc(CCl)cc2)cc1
T/C (dose: 6.25 mg/kg/injection, schedule: Q01DX009 (ip), vehicle: Klucel (hydroxypropylcellulose) (HPC)): 101 % of control
T/C [14]: 101 % of control and 115 % of control
T/C [9]: 105 % of control
T/C [10]: 115 % of control and 124 % of control

COc1cc(C(=O)CO)cc(OC)c1OC(C)=O
T/C (dose: 100.0 mg/kg/injection, schedule: Q04DX003 (ip), vehicle: saline with Tween-80): 95 % of control
T/C (dose: 200.0 mg/kg/injection, schedule: Q04DX003 (ip), vehicle: saline with Tween-80): 87 % of control

COC(CCC#N)c1ccc(Cl)cc1 (centres undefined)
T/C [4]: 101 % of control
T/C [7]: 96 % of control
T/C [8]: 98 % of control

C1CN(P2(N3CC3)=NP(N3CC3)(N3CC3)=NP(N3CC3)(N3CC3)=N2)CCO1 (centres undefined)
T/C (dose: 0.25 mg/kg/injection, schedule: Q01DX009 (ip), vehicle: saline): 101 % of control
T/C (dose: 0.5 mg/kg/injection, schedule: Q01DX009 (ip), vehicle: saline): 117 % of control
T/C (dose: 1.0 mg/kg/injection, schedule: Q01DX009 (ip), vehicle: saline): 117 % of control
T/C (dose: 1.0 mg/kg/injection, schedule: Q02DX009 (ip), vehicle: saline): 98 % of control and 104 % of control
T/C (dose: 2.0 mg/kg/injection, schedule: Q01DX009 (ip), vehicle: saline): 120 % of control
T/C (dose: 2.0 mg/kg/injection, schedule: Q02DX009 (ip), vehicle: saline): 98 % of control and 121 % of control
T/C (dose: 3.13 mg/kg/injection, schedule: Q01DX009 (ip), vehicle: saline): 111 % of control and 112 % of control
T/C (dose: 3.13 mg/kg/injection, schedule: Q02DX009 (ip), vehicle: saline): 110 % of control and 115 % of control
T/C (dose: 4.0 mg/kg/injection, schedule: Q01DX009 (ip), vehicle: saline): 116 % of control
T/C (dose: 4.0 mg/kg/injection, schedule: Q02DX009 (ip), vehicle: saline): 106 % of control and 122 % of control
T/C (dose: 6.25 mg/kg/injection, schedule: Q02DX009 (ip), vehicle: saline): 93 % of control
T/C (dose: 8.0 mg/kg/injection, schedule: Q02DX009 (ip), vehicle: saline): 108 % of control
T/C (dose: 12.5 mg/kg/injection, schedule: Q02DX009 (ip), vehicle: saline): 154 % of control and 156 % of control
T/C (dose: 16.0 mg/kg/injection, schedule: Q02DX009 (ip), vehicle: saline): 151 % of control and 171 % of control
T/C (dose: 25.0 mg/kg/injection, schedule: Q02DX009 (ip), vehicle: saline): 164 % of control and 186 % of control and 200 % of control

C=CC(=O)NCNC(=O)CCBr
T/C [9]: 115 % of control
T/C [10]: 121 % of control
T/C [11]: 123 % of control

Cc1cc(C)c(C(=O)CC(=O)c2cccnc2)c(C)c1
T/C (dose: 100.0 mg/kg/injection, schedule: Q01DX009 (ip), vehicle: saline + Tween-80 + alcohol): 98 % of control
T/C (dose: 200.0 mg/kg/injection, schedule: Q01DX009 (ip), vehicle: saline + Tween-80 + alcohol): 91 % of control

c1ccc(C2c3ccccc3C(c3ccccc3)(c3ccccc3)c3ccccc32)cc1
T/C [14]: 87 % of control
T/C [9]: 101 % of control
T/C [10]: 97 % of control
T/C [11]: 86 % of control

Nc1ccn(C2CC(O)C(CO)O2)c(=O)n1 (centres undefined)
T/C (dose: 9.38 mg/kg/injection, schedule: Q01DX009 (ip), vehicle: water): 105 % of control
T/C (dose: 18.75 mg/kg/injection, schedule: Q01DX009 (ip), vehicle: water): 101 % of control
T/C (dose: 37.5 mg/kg/injection, schedule: Q01DX009 (ip), vehicle: water): 100 % of control
T/C (dose: 75.0 mg/kg/injection, schedule: Q01DX009 (ip), vehicle: water): 99 % of control
T/C (dose: 150.0 mg/kg/injection, schedule: Q01DX009 (ip), vehicle: water): 109 % of control

O=c1ssc(=Nc2ccccc2)n1-c1ccccc1
T/C [14]: 102 % of control
T/C [9]: 102 % of control
T/C [10]: 100 % of control
T/C [11]: 106 % of control
T/C [12]: 91 % of control
